Measurements taken from publication PMC10384602 (Pharmaceuticals, 2023).

Experiments:
[1] = Radiochemical stability of the formulated product on standing at room temperature; type: physicochemical; conditions: after standing for 90 min at room temperature
[2] = logD7.4 in octanol/buffer mixture; type: physicochemical; conditions: pH 7.4, room temperature

- radiochemical purity after standing [1]: > 95%
- logD [2]: 3.59
SMILES: O=C(Cc1ccccc1)Nc1nnc(CCSCCc2nnc(N[11C](=O)Cc3ccccc3)s2)s1 [[^11C]BPTES]
